Experiment [1] has as its system metY U47Isocytidine (RNA, riboswitch, isocytidine at 47 (replaces U47)) AGGCGCAUUUGAACUGUAUUGUACGCCUUGCAUAAAGCAAAAGUACUAAAAAAGG
The experiment in a line: ITC. Conditions: 100 mM KCl, 10 mM MgCl2; 40 mM HEPES pH 7.2, 298 K; 200 µM SAM titrated into 15 µM RNA.

The test system of experiment [2] is bhmT U47Isocytidine (RNA, riboswitch, isocytidine at U47 (metY numbering; position 44 of strand)) GGGCAGUUGAACCAUAUUGUGCGCCCUGCAUUUGCUUAAGCACUAAAAAGGA
The experiment in a line: ITC. The note with it: 100 mM KCl, 10 mM MgCl2; 40 mM HEPES pH 7.2, 298 K; 200 µM SAM titrated into 15 µM RNA.

In experiment [3] the test system is bhmT A50Pur (RNA, riboswitch, purine at A50 (metY numbering; position 47 of strand)) GGGCAGUUGAACCAUAUUGUGCGCCCUGCAUUUGCUUAAGCACUAAAAAGGA
Briefly: ITC. Conditions: 100 mM KCl, 10 mM MgCl2; 40 mM HEPES pH 7.2, 298 K.

Experiment [4] concerns bhmT 49 nt (SAM-49) (RNA, riboswitch) GGGCAGUUGAACCAUAUUGUGCGCCCUGCAUUUGCUUAAGCACUAAAAA
Briefly: ITC. The note with it: 100 mM KCl, 10 mM MgCl2; 40 mM HEPES pH 7.2, 298 K; 200 µM SAM titrated into 15 µM RNA.

Experiment [5] deals with bhmT A50Ino (RNA, riboswitch, inosine at A50 (metY numbering; position 47 of strand)) GGGCAGUUGAACCAUAUUGUGCGCCCUGCAUUUGCUUAAGCACUAAAAAGGA
Briefly: ITC. The note with it: 100 mM KCl, 10 mM MgCl2; 40 mM HEPES pH 7.2, 298 K.

In experiment [6] the test system is bhmT 52 nt (SAM-52) (RNA, riboswitch) GGGCAGUUGAACCAUAUUGUGCGCCCUGCAUUUGCUUAAGCACUAAAAAGGA
The experiment in a line: ITC. Conditions: 100 mM KCl, 10 mM MgCl2, 40 mM HEPES pH 7.2, 298 K.

The test system of experiment [7] is metY A50Inosine (RNA, riboswitch, inosine at 50 (replaces A50)) AGGCGCAUUUGAACUGUAUUGUACGCCUUGCAUAAAGCAAAAGUACUAAAAAAGG
The experiment in a line: ITC. The note with it: 100 mM KCl, 10 mM MgCl2; 40 mM HEPES pH 7.2, 298 K; 200 µM SAM titrated into 15 µM RNA.

Experiment [8] concerns bhmT U9 4-thiouridine (RNA, riboswitch, 4-thiouridine at U9 (metY numbering; position 7 of strand)) GGGCAGUUGAACCAUAUUGUGCGCCCUGCAUUUGCUUAAGCACUAAAAAGGA
Briefly: ITC. Conditions: 100 mM KCl, 10 mM MgCl2; 40 mM HEPES pH 7.2, 298 K; 200 µM SAM titrated into 15 µM RNA.

For experiment [9], the system named is bhmT U20 4-thiouridine (RNA, riboswitch, 4-thiouridine at U20 (metY numbering; position 18 of strand)) GGGCAGUUGAACCAUAUUGUGCGCCCUGCAUUUGCUUAAGCACUAAAAAGGA
Briefly: ITC. Conditions: 100 mM KCl, 10 mM MgCl2; 40 mM HEPES pH 7.2, 298 K; 200 µM SAM titrated into 15 µM RNA.

Experiment [10] concerns metY 53 nt (RNA, riboswitch) AGGCGCAUUUGAACUGUAUUGUACGCCUUGCAUAAAGCAAAAGUACUAAAAAA
The experiment in a line: ITC. Conditions: 100 mM KCl, 10 mM MgCl2; 40 mM HEPES pH 7.2, 298 K; 200 µM SAM titrated into 15 µM RNA.

For experiment [11], the system named is metY 55 nt (metY SAM-V riboswitch) (RNA, riboswitch) AGGCGCAUUUGAACUGUAUUGUACGCCUUGCAUAAAGCAAAAGUACUAAAAAAGG
The experiment in a line: ITC. Conditions: 100 mM KCl, 10 mM MgCl2, 40 mM HEPES pH 7.2, 298 K.

The test system of experiment [12] is metY 53 nt, 5-bromocytosine (crystallized) (RNA, riboswitch, 5-bromocytidine at 4) AGGCGCAUUUGAACUGUAUUGUACGCCUUGCAUAAAGCAAAAGUACUAAAAAA
The experiment in a line: X-ray crystallography (2.5 Å). The note with it: co-crystal, space group P4_122.

Experiment [13] has as its system metY A50Pur (RNA, riboswitch, purine at 50 (replaces A50)) AGGCGCAUUUGAACUGUAUUGUACGCCUUGCAUAAAGCAAAAGUACUAAAAAAGG
The experiment in a line: ITC. Conditions: 100 mM KCl, 10 mM MgCl2; 40 mM HEPES pH 7.2, 298 K.

Setting [14] is: 200-250 µM SAH titrated into 15 µM RNA.

`C[S+](CC[C@H](N)C(=O)O)C[C@H]1O[C@@H](n2cnc3c(N)ncnc32)[C@H](O)[C@@H]1O` (stereo partly drawn): the binding result is “no” in experiment [1]; “no” in [2]; “no” in experiment [4]; “weak” in [7]; “no” in [8]; “weak” in experiment [9]. The binding result in [10] was “no”; in [12], “yes”. Further, the Kd is recorded as 0.90 ± 0.10 µM in experiment [3]; 16.8 ± 2.6 µM in [5]; 0.50 ± 0.08 µM in experiment [6]; 4.37 ± 0.21 µM in [11]; 14.7 ± 1.8 µM in experiment [13].

As for `Nc1ncnc2c1ncn2[C@@H]1O[C@H](CSCC[C@H](N)C(=O)O)[C@@H](O)[C@H]1O`, the binding entry in experiment [6] (setting [14]) and in experiment [11] (setting [14]) was “no” in each case.

One may read the Kd as the free concentration of one partner at which half of the binding sites on the other are occupied at equilibrium, for simple one-to-one binding.

(Values after paper PMC6061858 (2018).)
